In paper PMC11995724, “Antibiotic target discovery by integrated phenotypic and activity-based profiling of electrophilic fragments” (Cell chemical biology, 2025):
In brackets after ≈: the same amount, converted by molar mass.

How the values were obtained:
[1] = biological target: T1, S. aureus FabH (Staphylococcus aureus, UniProt Q6GAU3); assay: in vitro targeting of purified protein (method not given); type: binding
T1 construct: recombinant, N-terminal His-tag, pET28a(+), E. coli BL21(DE3)
T1 sequence (Q6GAU3 1-313): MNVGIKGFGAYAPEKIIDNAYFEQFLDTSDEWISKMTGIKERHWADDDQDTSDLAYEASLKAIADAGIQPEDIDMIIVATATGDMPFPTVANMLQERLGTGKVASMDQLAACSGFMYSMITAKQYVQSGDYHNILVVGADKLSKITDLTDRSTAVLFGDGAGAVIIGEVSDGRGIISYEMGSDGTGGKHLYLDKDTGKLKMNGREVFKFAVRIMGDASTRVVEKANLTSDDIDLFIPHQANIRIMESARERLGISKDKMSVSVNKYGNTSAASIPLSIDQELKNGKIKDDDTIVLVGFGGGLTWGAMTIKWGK
Text: in vitro targeting of purified protein (method not told in the main text) on S. aureus FabH | The S. aureus FabH […] can also be targeted by 10-F05 in vitro

[2] = biological target: T2, Sf_FabH (Shigella flexneri, UniProt Q83RS8); assay: in-gel fluorescence, competition with 5-TMRIA labelling; type: binding; settings: covalent; 1.5 uM protein in PBS, 1 h, 22 °C
T2 construct: gene fabH; recombinant, N-terminal His-tag, pET28a(+), E. coli BL21(DE3), Ni-NTA and Superdex 75
T2 sequence (Q83RS8 1-317): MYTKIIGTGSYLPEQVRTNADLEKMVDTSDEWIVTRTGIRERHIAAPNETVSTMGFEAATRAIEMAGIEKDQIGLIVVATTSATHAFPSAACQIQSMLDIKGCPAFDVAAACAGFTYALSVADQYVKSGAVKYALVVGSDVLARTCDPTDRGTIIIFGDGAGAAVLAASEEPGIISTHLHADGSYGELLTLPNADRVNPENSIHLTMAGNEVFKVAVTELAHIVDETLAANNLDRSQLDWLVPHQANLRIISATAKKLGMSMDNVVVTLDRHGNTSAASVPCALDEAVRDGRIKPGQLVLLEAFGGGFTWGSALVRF

[3] = biological target: T3, Sf_PdxY (Shigella flexneri, UniProt Q83KY1); assay: as above; type: binding; settings: covalent; 1.5 uM protein in PBS, 1 h, 22 °C
T3 construct: gene pdxY; recombinant, N-terminal His-tag, pET28a(+), E. coli BL21(DE3), Ni-NTA and Superdex 75
T3 sequence (Q83KY1 1-287): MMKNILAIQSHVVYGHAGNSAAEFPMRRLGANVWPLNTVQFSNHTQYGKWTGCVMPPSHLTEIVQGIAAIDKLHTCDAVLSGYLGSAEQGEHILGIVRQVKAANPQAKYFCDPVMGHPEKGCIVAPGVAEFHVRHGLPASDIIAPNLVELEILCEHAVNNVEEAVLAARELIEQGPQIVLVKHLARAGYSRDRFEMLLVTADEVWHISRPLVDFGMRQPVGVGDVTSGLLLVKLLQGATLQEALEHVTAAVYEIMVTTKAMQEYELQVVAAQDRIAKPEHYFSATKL

[4] = in vitro; settings: human, hek293t cells
[5] = test system: T4, Staphylococcus aureus SAD30; assay: microbe, parasite or virus in culture; parameters: species or system bacteria in LB, TSB or NB; broth microdilution MIC, OD600, lowest concentration with no growth
T4 construct: SAD30
Description: The minimum inhibitory concentrations (MICs) of compounds were measured using the broth microdilution method.[10] One stab using 10 µL tip from bacteria glycerol stock was inoculated into 5 mL of LB supplemented with selection antibiotics (Kanamycin for Keio collections and chloramphenicol for ASKA collections), and the culture was incubated at 37°C with shaking overnight. The overnight culture was diluted 1:10000 (~5 × 10^5 CFU/mL) and then dispensed in to a 96-well plate containing serial dilutions of indicated compounds in DMSO. The plate was incubated at 37°C for 16–20 h with shaking at 80 rpm and the OD600 was measured using Cytation 5 plate reader (BioTek). MIC was determined as the lowest concentration for which no bacterial growth was observed. LB was used as the growth media for all the bacteria strains unless otherwise mentioned. For S. aureus and A. baumannii strains, tryptic soy broth (TSB, BD, DF0370-17-3) was used as the growth media instead of LB. For P. aeruginosa and K. pneumoniae strains, nutrient broth (NB, RPI, N15100) was used as growth media. All MIC measurements were performed in at least biological duplicates.

| Compound | viability at 48 h, 25 µM [4] | also measured |
| --- | --- | --- |
| O=C(CCl)c1cn(-c2ccc(F)cc2)nn1 [10-F05] | 89.9% | in vitro targeting of purified protein (method not given) [1]: The S. aureus FabH [...] can also be targeted by 10-F05 in vitro; in-gel fluorescence, competition with 5-TMRIA labelling [2]: preincubation with 10-F05 resulted in a dose-dependent decrease in 5-TMRIA labeling of these proteins; in-gel fluorescence, competition with 5-TMRIA labelling [3]: preincubation with 10-F05 resulted in a dose-dependent decrease in 5-TMRIA labeling of these proteins; MIC [5]: 10 µM (≈ 2.4 µg/mL) |
| Cc1cc(C(=O)CCl)c(C)n1C(C)c1ccccc1 (centres unmarked) [10-P17, 2-chloro-1-[2,5-dimethyl-1-(1-phenylethyl)-1H-pyrrol-3-yl]ethan-1-one] | 113% | – |
| CN1C(=C(C#N)C(=O)CCl)N(C)c2ccccc21 [10-P18, 4-chloro-2-(1,3-dimethyl-2,3-dihydro-1H-1,3-benzodiazol-2-ylidene)-3-oxobutanenitrile] | 89.4% | – |
| O=S(=O)(CC=C(Cl)Cl)N1CCSSCC1 [10-P19, 5-(3,3-dichloroprop-2-ene-1-sulfonyl)-1,2,5-dithiazepane] | 127% | – |
| CN(C)C1=NC(N)=NC(=C(C#N)C(=O)CCl)N1 [10-P20, 2-[4-amino-6-(dimethylamino)-1,2-dihydro-1,3,5-triazin-2-ylidene]-4-chloro-3-oxobutanenitrile] | 104% | – |
| COc1ccccc1CN1C(=O)C=CC1=O [10-P21, 1-[(2-methoxyphenyl)methyl]-2,5-dihydro-1H-pyrrole-2,5-dione] | 105% | – |
| CC(=O)c1c(C)[nH]c(C(=O)C(C)Cl)c1C (centres unmarked) [10-P22, 1-(4-acetyl-3,5-dimethyl-1H-pyrrol-2-yl)-2-chloropropan-1-one] | 103% | – |
